Test: Safety and tolerability, Part A single ascending-dose phase in healthy participants
Type: in vivo, human
Method: A further two cohorts were recruited. […] Each individual participated in one treatment period only, with the exception of the food-effect cohort (cohort A3) in which there were two treatment periods separated by at least 7 days washout. Participants resided at the Clinical Research Unit (CRU) from 1 day ahead of dosing (day − 1) to day 3 and returned for a follow-up visit 5–7 days after their final dose. For all cohorts, doses were administered in the fasted state in the morning of day 1 of Treatment Period 1. In the food-effect cohort, doses were given 30 min after the start of a high-fat breakfast (973 calories total: approximately 150 protein calories, 250 carbohydrate calories, and 500–600 fat calories) on day 1 of Treatment Period 2. For cohorts A1 to A5 in Treatment Period 1, dosing occurred such that one pair (one active and one placebo) were dosed at least 24 h before the remaining participants. Continuation to dose those who remained was at the investigator’s discretion. Escalating doses were administered following satisfactory sponsor and investigator review of the safety and tolerability data (up to 48 h post-final dose) and PK data (up to 24 h post-final dose) from the lower dose levels.
Safety and tolerability assessments included adverse event (AE) monitoring, physical examinations, laboratory assessments (hematology, clinical chemistry, and urinalysis), vital signs (blood pressure, pulse rate, and body temperature) and ECG.
No formal statistical assessment was performed for the safety analysis.

[1] = Part A 50 mg (1 x 50 mg), fasted
[2] = Part A 50 mg (10 x 5 mg), fasted

OC[C@H]1O[C@H](Sc2cncc(Br)c2)[C@H](O)[C@@H](n2cc(-c3cc(F)c(F)c(F)c3)nn2)[C@H]1O [GB1211]
Effect of food intake or capsule formulation on TEAEs (Part A): no effect | Participants with a TEAE possibly related to treatment, GB1211 (Part A): 3 | Treatment- or dose-related trend in TEAEs (Part A): no apparent treatment- or dose-related trend | TEAE Back pain, no. of AEs (Part A 5 mg, fasted): 1 | TEAE Back pain, participants (Part A 5 mg, fasted): 1 (16.7%) n (%) | TEAE Constipation, participants (Part A 5 mg, fasted): 0 n (%) | TEAE Cough, participants (Part A 5 mg, fasted): 0 n (%) | TEAE Decreased appetite, participants (Part A 5 mg, fasted): 0 n (%) | TEAE Diarrhea, no. of AEs (Part A 5 mg, fasted): 1 | TEAE Diarrhea, participants (Part A 5 mg, fasted): 1 (16.7%) n (%) | TEAE Dry mouth, participants (Part A 5 mg, fasted): 0 n (%) | TEAE Dry skin, participants (Part A 5 mg, fasted): 0 n (%) | TEAE Dyspepsia, participants (Part A 5 mg, fasted): 0 n (%) | TEAE Gastrointestinal disorders, no. of AEs (Part A 5 mg, fasted): 1 | TEAE Gastrointestinal disorders, participants (Part A 5 mg, fasted): 1 (16.7%) n (%) | TEAE General disorders and administration site conditions, no. of AEs (Part A 5 mg, fasted): 1 | TEAE General disorders and administration site conditions, participants (Part A 5 mg, fasted): 1 (16.7%) n (%) | TEAE Headache, participants (Part A 5 mg, fasted): 0 n (%) | TEAE Infections and infestations, no. of AEs (Part A 5 mg, fasted): 1 | TEAE Infections and infestations, participants (Part A 5 mg, fasted): 1 (16.7%) n (%) | TEAE Injury, poisoning and procedural complications, participants (Part A 5 mg, fasted): 0 n (%) | TEAE Medical device site reaction, no. of AEs (Part A 5 mg, fasted): 1 | TEAE Medical device site reaction, participants (Part A 5 mg, fasted): 1 (16.7%) n (%) | TEAE Metabolism and nutrition disorders, participants (Part A 5 mg, fasted): 0 n (%) | TEAE Musculoskeletal and connective tissue disorders, no. of AEs (Part A 5 mg, fasted): 1 | TEAE Musculoskeletal and connective tissue disorders, participants (Part A 5 mg, fasted): 1 (16.7%) n (%) | TEAE Nasopharyngitis, no. of AEs (Part A 5 mg, fasted): 1 | TEAE Nasopharyngitis, participants (Part A 5 mg, fasted): 1 (16.7%) n (%) | TEAE Nervous system disorders, participants (Part A 5 mg, fasted): 0 n (%) | TEAE Pain, participants (Part A 5 mg, fasted): 0 n (%) | TEAE Rash, participants (Part A 5 mg, fasted): 0 n (%) | TEAE Respiratory, thoracic and mediastinal disorders, participants (Part A 5 mg, fasted): 0 n (%) | TEAE Skin and subcutaneous tissue disorders, participants (Part A 5 mg, fasted): 0 n (%) | TEAE Wound, participants (Part A 5 mg, fasted): 0 n (%) | TEAE Back pain, participants (Part A 20 mg, fasted): 0 n (%) | TEAE Constipation, participants (Part A 20 mg, fasted): 0 n (%) | TEAE Cough, participants (Part A 20 mg, fasted): 0 n (%) | TEAE Decreased appetite, participants (Part A 20 mg, fasted): 0 n (%) | TEAE Diarrhea, participants (Part A 20 mg, fasted): 0 n (%) | TEAE Dry mouth, participants (Part A 20 mg, fasted): 0 n (%) | TEAE Dry skin, participants (Part A 20 mg, fasted): 0 n (%) | TEAE Dyspepsia, participants (Part A 20 mg, fasted): 0 n (%) | TEAE Gastrointestinal disorders, participants (Part A 20 mg, fasted): 0 n (%) | TEAE General disorders and administration site conditions, no. of AEs (Part A 20 mg, fasted): 1 | TEAE General disorders and administration site conditions, participants (Part A 20 mg, fasted): 1 (16.7%) n (%) | TEAE Headache, participants (Part A 20 mg, fasted): 0 n (%) | TEAE Infections and infestations, participants (Part A 20 mg, fasted): 0 n (%) | TEAE Injury, poisoning and procedural complications, participants (Part A 20 mg, fasted): 0 n (%) | TEAE Medical device site reaction, participants (Part A 20 mg, fasted): 0 n (%) | TEAE Metabolism and nutrition disorders, participants (Part A 20 mg, fasted): 0 n (%) | TEAE Musculoskeletal and connective tissue disorders, participants (Part A 20 mg, fasted): 0 n (%) | TEAE Nasopharyngitis, participants (Part A 20 mg, fasted): 0 n (%) | TEAE Nervous system disorders, participants (Part A 20 mg, fasted): 0 n (%) | TEAE Pain, no. of AEs (Part A 20 mg, fasted): 1 | TEAE Pain, participants (Part A 20 mg, fasted): 1 (16.7%) n (%) | TEAE Rash, participants (Part A 20 mg, fasted): 0 n (%) | TEAE Respiratory, thoracic and mediastinal disorders, participants (Part A 20 mg, fasted): 0 n (%) | TEAE Skin and subcutaneous tissue disorders, participants (Part A 20 mg, fasted): 0 n (%) | TEAE Wound, participants (Part A 20 mg, fasted): 0 n (%) | TEAE Back pain, participants [1]: 0 n (%) | TEAE Constipation, participants [1]: 0 n (%) | TEAE Cough, no. of AEs [1]: 1 | TEAE Cough, participants [1]: 1 (16.7%) n (%) | TEAE Decreased appetite, participants [1]: 0 n (%) | TEAE Diarrhea, participants [1]: 0 n (%) | TEAE Dry mouth, participants [1]: 0 n (%) | TEAE Dry skin, participants [1]: 0 n (%) | TEAE Dyspepsia, participants [1]: 0 n (%) | TEAE Gastrointestinal disorders, participants [1]: 0 n (%) | TEAE General disorders and administration site conditions, participants [1]: 0 n (%) | TEAE Headache, participants [1]: 0 n (%) | TEAE Infections and infestations, participants [1]: 0 n (%) | TEAE Injury, poisoning and procedural complications, participants [1]: 0 n (%) | TEAE Medical device site reaction, participants [1]: 0 n (%) | TEAE Metabolism and nutrition disorders, participants [1]: 0 n (%) | TEAE Musculoskeletal and connective tissue disorders, participants [1]: 0 n (%) | TEAE Nasopharyngitis, participants [1]: 0 n (%) | TEAE Nervous system disorders, participants [1]: 0 n (%) | TEAE Pain, participants [1]: 0 n (%) | TEAE Rash, participants [1]: 0 n (%) | TEAE Respiratory, thoracic and mediastinal disorders, no. of AEs [1]: 1 | TEAE Respiratory, thoracic and mediastinal disorders, participants [1]: 1 (16.7%) n (%) | TEAE Skin and subcutaneous tissue disorders, participants [1]: 0 n (%) | TEAE Wound, participants [1]: 0 n (%) | TEAE Back pain, participants (Part A 50 mg (1 x 50 mg), fed): 0 n (%) | TEAE Constipation, participants (Part A 50 mg (1 x 50 mg), fed): 0 n (%) | TEAE Cough, participants (Part A 50 mg (1 x 50 mg), fed): 0 n (%) | TEAE Decreased appetite, participants (Part A 50 mg (1 x 50 mg), fed): 0 n (%) | TEAE Diarrhea, participants (Part A 50 mg (1 x 50 mg), fed): 0 n (%) | TEAE Dry mouth, participants (Part A 50 mg (1 x 50 mg), fed): 0 n (%) | TEAE Dry skin, no. of AEs (Part A 50 mg (1 x 50 mg), fed): 1 | TEAE Dry skin, participants (Part A 50 mg (1 x 50 mg), fed): 1 (16.7%) n (%) | TEAE Dyspepsia, participants (Part A 50 mg (1 x 50 mg), fed): 0 n (%) | TEAE Gastrointestinal disorders, participants (Part A 50 mg (1 x 50 mg), fed): 0 n (%) | TEAE General disorders and administration site conditions, participants (Part A 50 mg (1 x 50 mg), fed): 0 n (%) | TEAE Headache, participants (Part A 50 mg (1 x 50 mg), fed): 0 n (%) | TEAE Infections and infestations, participants (Part A 50 mg (1 x 50 mg), fed): 0 n (%) | TEAE Injury, poisoning and procedural complications, participants (Part A 50 mg (1 x 50 mg), fed): 0 n (%) | TEAE Medical device site reaction, participants (Part A 50 mg (1 x 50 mg), fed): 0 n (%) | TEAE Metabolism and nutrition disorders, participants (Part A 50 mg (1 x 50 mg), fed): 0 n (%) | TEAE Musculoskeletal and connective tissue disorders, participants (Part A 50 mg (1 x 50 mg), fed): 0 n (%) | TEAE Nasopharyngitis, participants (Part A 50 mg (1 x 50 mg), fed): 0 n (%) | TEAE Nervous system disorders, participants (Part A 50 mg (1 x 50 mg), fed): 0 n (%) | TEAE Pain, participants (Part A 50 mg (1 x 50 mg), fed): 0 n (%) | TEAE Rash, participants (Part A 50 mg (1 x 50 mg), fed): 0 n (%) | TEAE Respiratory, thoracic and mediastinal disorders, participants (Part A 50 mg (1 x 50 mg), fed): 0 n (%) | TEAE Skin and subcutaneous tissue disorders, no. of AEs (Part A 50 mg (1 x 50 mg), fed): 1 | TEAE Skin and subcutaneous tissue disorders, participants (Part A 50 mg (1 x 50 mg), fed): 1 (16.7%) n (%) | TEAE Wound, participants (Part A 50 mg (1 x 50 mg), fed): 0 n (%) | TEAE Back pain, no. of AEs [2]: 1 | TEAE Back pain, participants [2]: 1 (16.7%) n (%) | TEAE Constipation, participants [2]: 0 n (%) | TEAE Cough, participants [2]: 0 n (%) | TEAE Decreased appetite, participants [2]: 0 n (%) | TEAE Diarrhea, participants [2]: 0 n (%) | TEAE Dry mouth, participants [2]: 0 n (%) | TEAE Dry skin, participants [2]: 0 n (%) | TEAE Dyspepsia, participants [2]: 0 n (%) | TEAE Gastrointestinal disorders, participants [2]: 0 n (%) | TEAE General disorders and administration site conditions, participants [2]: 0 n (%) | TEAE Headache, participants [2]: 0 n (%) | TEAE Infections and infestations, participants [2]: 0 n (%) | TEAE Injury, poisoning and procedural complications, participants [2]: 0 n (%) | TEAE Medical device site reaction, participants [2]: 0 n (%) | TEAE Metabolism and nutrition disorders, participants [2]: 0 n (%) | TEAE Musculoskeletal and connective tissue disorders, no. of AEs [2]: 1 | TEAE Musculoskeletal and connective tissue disorders, participants [2]: 1 (16.7%) n (%) | TEAE Nasopharyngitis, participants [2]: 0 n (%) | TEAE Nervous system disorders, participants [2]: 0 n (%) | TEAE Pain, participants [2]: 0 n (%) | TEAE Rash, participants [2]: 0 n (%) | TEAE Respiratory, thoracic and mediastinal disorders, participants [2]: 0 n (%) | TEAE Skin and subcutaneous tissue disorders, participants [2]: 0 n (%) | TEAE Wound, participants [2]: 0 n (%) | TEAE Back pain, participants (Part A 100 mg, fasted): 0 n (%) | TEAE Constipation, participants (Part A 100 mg, fasted): 0 n (%) | TEAE Cough, participants (Part A 100 mg, fasted): 0 n (%) | TEAE Decreased appetite, participants (Part A 100 mg, fasted): 0 n (%) | TEAE Diarrhea, participants (Part A 100 mg, fasted): 0 n (%) | TEAE Dry mouth, participants (Part A 100 mg, fasted): 0 n (%) | TEAE Dry skin, participants (Part A 100 mg, fasted): 0 n (%) | TEAE Dyspepsia, no. of AEs (Part A 100 mg, fasted): 1 | TEAE Dyspepsia, participants (Part A 100 mg, fasted): 1 (16.7%) n (%) | TEAE Gastrointestinal disorders, no. of AEs (Part A 100 mg, fasted): 1 | TEAE Gastrointestinal disorders, participants (Part A 100 mg, fasted): 1 (16.7%) n (%) | TEAE General disorders and administration site conditions, participants (Part A 100 mg, fasted): 0 n (%) | TEAE Headache, participants (Part A 100 mg, fasted): 0 n (%) | TEAE Infections and infestations, no. of AEs (Part A 100 mg, fasted): 1 | TEAE Infections and infestations, participants (Part A 100 mg, fasted): 1 (16.7%) n (%) | TEAE Injury, poisoning and procedural complications, participants (Part A 100 mg, fasted): 0 n (%) | TEAE Medical device site reaction, participants (Part A 100 mg, fasted): 0 n (%) | TEAE Metabolism and nutrition disorders, participants (Part A 100 mg, fasted): 0 n (%) | TEAE Musculoskeletal and connective tissue disorders, participants (Part A 100 mg, fasted): 0 n (%) | TEAE Nasopharyngitis, no. of AEs (Part A 100 mg, fasted): 1 | TEAE Nasopharyngitis, participants (Part A 100 mg, fasted): 1 (16.7%) n (%) | TEAE Nervous system disorders, participants (Part A 100 mg, fasted): 0 n (%)
